The target in assay [1] is T1, endogenously expressed TGR5 in NCI H716 (Homo sapiens, UniProt Q8TDU6).
T1 construct: human caecum carcinoma cell line NCI-H716 which endogenously expresses human TGR5; endogenous in cells; host or cells: NCI-H716
T1 sequence (Q8TDU6 1-330): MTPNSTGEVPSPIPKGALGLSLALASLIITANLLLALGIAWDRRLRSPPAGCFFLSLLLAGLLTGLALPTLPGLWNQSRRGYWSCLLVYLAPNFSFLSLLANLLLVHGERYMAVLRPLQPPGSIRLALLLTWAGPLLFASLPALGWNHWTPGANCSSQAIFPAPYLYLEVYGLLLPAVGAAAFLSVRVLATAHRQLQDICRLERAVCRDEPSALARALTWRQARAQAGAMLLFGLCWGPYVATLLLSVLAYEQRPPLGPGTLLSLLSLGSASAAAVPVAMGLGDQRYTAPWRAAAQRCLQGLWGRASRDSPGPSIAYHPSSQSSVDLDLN
Kind of assay: Cell-based TGR5 assay, NCI-H716 cells endogenously expressing human TGR5, cAMP by HTRF. To be noted: 30 min at 37 C, 22 nM to 50 μM, read-out: pEC50 endogenously expressed TGR5 in NCI H716 (converted). In a few lines:
(§1)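 cAMP HTRF read-out, converted to concentration via standard curve, after a 30 min, 37 °C compound exposure in HBSS with 10 mM HEPES pH 7.4 and 0.5 mM IBMX, compounds serially diluted 3-fold from 10 mM DMSO stock then 100-fold. Cells: stable human TGR5 HEK293, or NCI-H716 expressing TGR5 endogenously.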
A general note: In TR-FRET formats the signal depends on donor and acceptor labels being close together.

Another assay addresses T2, human FXR (Homo sapiens, UniProt Q96RI1).
T2 construct: purchased Indigo Biosciences (State College, Pa.)
T2 sequence (Q96RI1 1-486): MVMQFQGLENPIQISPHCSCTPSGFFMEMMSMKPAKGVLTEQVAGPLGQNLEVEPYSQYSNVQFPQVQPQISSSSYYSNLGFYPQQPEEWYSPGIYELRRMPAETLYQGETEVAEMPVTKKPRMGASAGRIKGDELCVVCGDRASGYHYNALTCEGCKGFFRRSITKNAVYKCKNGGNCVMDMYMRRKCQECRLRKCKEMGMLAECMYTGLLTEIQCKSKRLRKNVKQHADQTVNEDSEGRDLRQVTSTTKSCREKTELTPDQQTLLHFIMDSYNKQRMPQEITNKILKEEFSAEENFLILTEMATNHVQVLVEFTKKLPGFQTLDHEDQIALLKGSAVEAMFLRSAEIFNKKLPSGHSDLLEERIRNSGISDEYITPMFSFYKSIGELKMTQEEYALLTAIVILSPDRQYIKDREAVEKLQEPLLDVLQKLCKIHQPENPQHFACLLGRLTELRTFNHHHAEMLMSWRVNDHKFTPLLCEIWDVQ
The assay is described as follows: FXR counter screen, cell-based luciferase reporter assay. To be noted: cells expressing human FXR and FXR-responsive luciferase reporter, 0.4 to 50 μM test compound; read-out: pEC50 human FXR (converted). The method, then:
FXR: The ability of test compounds to activate FXR (NR1H4) was measured using a cell-based assay kit obtained from Indigo Biosciences (State College, Pa.).
Background: A counterscreen serves to expose hits that act by an unwanted route or on another target.

Another assay addresses T3, human TGR5 (Homo sapiens, UniProt Q8TDU6).
T3 construct: expressed in transfected cells
T3 sequence (Q8TDU6 1-330): T1 sequence (Q8TDU6 1-330)
Kind of assay: Cell-based TGR5 assay, HEK293 cells stably expressing human TGR5, cAMP by HTRF. To be noted: HEK293 cells stably expressing human TGR5, 30 min at 37 C, 0.05 nM to 10 μM, read-out: pEC50 Human TGR5 (converted). An outline of the steps: as §1

A further assay addresses T4, human IBAT (Homo sapiens, UniProt Q12908).
T4 construct: expressed in transfected cells; host or cells: HEK293
T4 sequence (Q12908 1-348): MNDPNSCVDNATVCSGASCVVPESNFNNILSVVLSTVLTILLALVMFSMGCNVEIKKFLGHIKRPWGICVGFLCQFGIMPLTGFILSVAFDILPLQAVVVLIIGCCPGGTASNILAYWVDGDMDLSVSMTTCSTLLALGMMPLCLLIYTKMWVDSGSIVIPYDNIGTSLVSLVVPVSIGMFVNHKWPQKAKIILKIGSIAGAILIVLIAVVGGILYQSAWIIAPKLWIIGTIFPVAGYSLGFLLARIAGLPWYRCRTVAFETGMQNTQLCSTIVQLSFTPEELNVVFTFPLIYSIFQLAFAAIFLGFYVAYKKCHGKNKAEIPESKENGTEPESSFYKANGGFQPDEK
The assay is described as follows: IBAT counter screen, [3H]taurocholic acid uptake in IBAT-transfected HEK293 cells. Format: cell-based. To be noted: read-out: pEC50 human IBAT (converted). The method, then: Following a 40-min incubation, the solution was removed, and the cells were washed twice with uptake buffer. Cells were lysed by addition of 20 μL 0.1% Tween 80 followed by 100 μL scintillation fluid and counted using a TopCount (Perkin Elmer).

Consider `O=C(N1CCN(C2CC2)c2ccccc21)C1(OCc2cc(Cl)ccc2Cl)CC1` [Example 9, (4-cyclopropyl-3,4-dihydroquinoxalin-1(2H)-yl)(1-(2,5-dichlorobenzyloxyl)cyclopropyl)methanone], for which the EC50 was 126 to 1000 nM in assay [1], above 50100 nM on human FXR, below 100 nM at human TGR5 and above 25100 nM on human IBAT.
On to `O=C(N1CCN(C2CC2)c2ccccc21)C1(COc2cc(Cl)ccc2Cl)CC1` [Example 32, 1-cyclopropyl-4-[[1-(2,5-dichlorophenoxymethyl)cyclopropyl]carbonyl]-1,2,3,4-tetrahydroquinoxaline], for which the EC50 in assay [1] is 126 to 1000 nM; on human FXR it was above 50100 nM; at human TGR5 it was below 100 nM.
In the case of `CN(C[C@H](O)[C@@H](O)[C@H](O)[C@H](O)CO)C(=O)CCc1cc(Cl)c(OCC2(C(=O)N3CCN(C4CC4)c4ccccc43)CC2)cc1Cl` [Example 34, 3-[2,5-dichloro-4-([1-[(4-cyclopropyl-1,2,3,4-tetrahydroquinoxalin-1-yl)carbonyl]cyclopropyl]methoxy)phenyl]-N-methyl-N-[(2S,3R,4R,5R)-2,3,4,5,6-pentahydroxyhexyl]propanamide], the EC50 in assay [1] is 1260 to 50100 nM; at human FXR, above 50100 nM; at human TGR5, 126 to 1000 nM.
Regarding `O=C(CCc1cc(Cl)c(OCC2(C(=O)N3CCN(C4CC4)c4ccccc43)CC2)cc1Cl)NC[C@H](O)[C@@H](O)[C@H](O)[C@H](O)CO` [Example 75, 3-[2,5-dichloro-4-([1-[(4-cyclopropyl-1,2,3,4-tetrahydroquinoxalin-1-yl)carbonyl]cyclopropyl]methoxy)phenyl]-N-[(2S,3R,4R,5R)-2,3,4,5,6-pentahydroxyhexyl]propanamide], the EC50 in assay [1] is 126 to 1000 nM; at human FXR it was above 50100 nM; at human TGR5 it was 126 to 1000 nM.
Regarding `CN(C[C@H](O)[C@@H](O)[C@H](O)[C@H](O)CO)C(=O)CCc1cc(Cl)c(COC2(C(=O)N3CCN(C4CC4)c4ccccc43)CC2)cc1Cl` [Example 80, 3-[2,5-dichloro-4-([1-[(4-cyclopropyl-1,2,3,4-tetrahydro-quinoxalin-1-yl)carbonyl]cyclopropoxy]methyl)phenyl]-N-methyl-N-[(2S,3R,4R,5R)-2,3,4,5,6-pentahydroxyhexyl]propanamide], the results for the EC50 (in assay [1]; on human FXR; at human TGR5) were 126 to 1000 nM, above 50100 nM and below 100 nM, respectively.
For `O=C(CCc1cc(Cl)c(COC2(C(=O)N3CCN(C4CC4)c4ccccc43)CC2)cc1Cl)NC[C@H](O)[C@@H](O)[C@H](O)[C@H](O)CO` [Example 88, 3-[2,5-dichloro-4-([1-[(4-cyclopropyl-1,2,3,4-tetrahydroquinoxalin-1-yl)carbonyl]cyclopropoxy]methyl)phenyl]-N-[(2S,3R,4R,5R)-2,3,4,5,6-pentahydroxyhexyl]propanamide], the EC50 in assay [1] is below 100 nM; on human FXR, above 50100 nM; at human TGR5 it was below 100 nM.

Source of the values: US20150148311A1, “NON-SYSTEMIC TGR5 AGONISTS” (Ardelyx, Inc., priority 2011, published 2015).
